Laboratory results as given in patent US6861431B2, “Compounds capable of modulating the activity of multidrug transporters and therapeutic use of the same” (The Board of Trustees of the University of Illinois, priority 2001, dated 2005).
Where two headings read alike, the source gives them in different places. Starred links: 1 amine or outer side, 2 acyl side, 3 side chain; linkers in the order of their positions; H or OH if unused. Positions of bridges follow the written chain, without caps; N, C: chain ends. Non-standard residues stand in square brackets, D forms with d. Residues, ends and D or L forms follow the SMILES beside them. Chains are numbered I, II in the order given. Actinocin(9to1) = Cc1c2oc3c(C)ccc(C(=O)[*:1])c3nc-2c(C(=O)[*:2])c(N)c1=O; NMeV = CN[C@H](C(=O)O)C(C)C; Sar = CNCC(=O)O

Legend:
P-gp [1] = system: P-gp
Description: (§1) Drug sensitivity assays. To estimate drug-mediated growth inhibition, 10^3 cells were plated per well of 96-well plates, and incubated with a range of concentrations of drugs added 24 hours after plating. After 5 to 7 hours of drug treatment, plates were fixed and stained using 2% methylene blue solution in 50% methanol. After elution by 1% SDS solution, optical density was determined on a Multiscan Ascent reader (Lybsystems, Helsinki, Finland) at 650 nm.
(§2) Drug accumulation and efflux assay. […] For drug efflux assay, cells after drug incubation were washed thoroughly with PBS, incubated in a drug-free media with or without compounds from the chemical library, and harvested at different time points for flow cytometric analysis (18).

ConA cells = assay: Drug sensitivity (growth inhibition) assay, ConA cells; format: cell-based, mouse; details: for Change in sensitivity (x-fold): Compound 102 (10 μM), fold resistance; for Effect of Compound 102 on drug sensitivity of cell lines: ConA (Balb 3T3): P-gp-positive ConA cells, label = drug
Description: as §1, with “After 5 to 7 hours of drug treatment, plates were fixed and stained using 2% methylene blue solution in 50% methanol.” left out

P-gp [2] = assay: Rho123 accumulation in ConA cells; format: cell-based, mouse; set-up: effect on Rho123 efflux/accumulation: dose or concentration left out as unconfirmed; details: two hours with Rho123, flow cytometry (FIG. 8)
Description: Screening of a chemical library. Murine fibroblastoid cell line (ConA) was selected as the readout system for screening a chemical library for P-gp activators. […] Rho123, a classic fluorescent P-gp substrate that is detected easily using multichannel fluorimeter in living cells, was used as an efflux indicator. […] Primary screening was performed on ConA cells for compounds that interfere with Adr-induced activation of p53-responsive reporter LacZ gene as previously described (11). To identify P-gp modulators, all “hits” isolated after primary screening were tested for their ability to modulate cellular accumulation of Rho123. Con A cells grown in 96-well plates were incubated 4 hours with 0.5 μM Rho123 in combination with individual library compounds (2 μg/ml (2-5 μM)), and cell fluorescence was analyzed using fluorescent microscopy.
as §2
(§3) ConA cells were incubated two hours with Rho123 ([…]) or daunorubicin (500 ng/ml) in the presence of the identified compounds, and accumulation of the drugs was quantitated by flow cytometry.

P-gp [3] = assay: Daunorubicin accumulation in ConA cells; format: cell-based, mouse; details: for effect on daunorubicin accumulation: ConA cells, two hours with daunorubicin (500 ng/ml), flow cytometry (FIG. 8)
Description: Drug accumulation and efflux assay. […] For drug efflux assay, cells after drug incubation were washed thoroughly with PBS, incubated in a drug-free media with or without compounds from the chemical library, and harvested at different time points for flow cytometric analysis (18). […]
as §3

mouse ConA cells = assay: DMBA sensitivity of mouse cells; format: cell-based
Description: The effect of the identified compounds on DMBA sensitivity of mouse cells also was tested. It has been reported that ABC type transporters (e.g., P-gp) are involved in the efflux of polycyclic aromatic hydrocarbon carcinogens from cells. The effect of the identified compounds on sensitivity of mouse cells to 7,12-dimethylbenz[a]anthracene (DMBA) was determined. […].

[4] = label = P-gp substrate drug, three groups

| Compound | cytotoxicity of the drug in the presence of Compound 102 (P-gp [1]) | Effect of Compound 102 on drug sensitivity of cell lines: ConA (Balb 3T3) (ConA cells) | effect on Rho123 efflux/accumulation (P-gp [2]) | effect on daunorubicin accumulation (P-gp [3]) | further results |
| --- | --- | --- | --- | --- | --- |
| Cc1c2oc3c(C)ccc(C(=O)N[C@@H]4C(=O)N[C@H](C(C)C)C(=O)N5CCC[C@H]5C(=O)N(C)CC(=O)N(C)[C@@H](C(C)C)C(=O)O[C@@H]4C)c3nc-2c(C(=O)N[C@@H]2C(=O)N[C@H](C(C)C)C(=O)N3CCC[C@H]3C(=O)N(C)CC(=O)N(C)[C@@H](C(C)C)C(=O)O[C@@H]2C)c(N)c1=O [Actinomycin D, actinomycin D] (I: T[dV]P[Sar][NMeV] / II: T[dV]P[Sar][NMeV]; ester I:1-I:C, II:1-II:C; linker I:N-II:N via Actinocin(9to1)) | do not change their cytotoxicity |  |  |  | Change in sensitivity (x-fold) (ConA cells; ConA cells): 1 x-fold; LD50 (ConA cells; ConA cells, drug alone): 20 ng/mL; LD50 comp (ConA cells; ConA cells, drug in the presence of Compound 102 (10 μM)): 20 ng/mL |
| CN[C@H]1CCc2cc(OC)c(OC)c(OC)c2-c2ccc(OC)c(=O)cc21 [Colcemide, colcemid] |  |  |  |  | cytotoxicity of the drug in the presence of Compound 102 (P-gp [1]; [4]): do not change their cytotoxicity |
| COc1cc2c(c(OC)c1OC)-c1ccc(OC)c(=O)cc1[C@@H](NC(C)=O)CC2 [Colchicine, colchicine] |  | S |  |  |  |
| Cc1cc(C)n(CC(O)Cn2c3ccccc3c3ccccc32)n1 (centres unmarked) [Compound 2, 1-Carbazol-9-yl-3-(3,5-dimethyl-pyrazol-1-yl)-propan-2-ol] |  |  | relatively effective | weak influence |  |
| Cc1cc(OCC(=O)Nc2ccc3nn(-c4ccccc4)nc3c2)cc(C)c1Cl [Compound 7, 2-(4-Chloro-3,5-dimethyl-phenoxy)-N-(2-phenyl-2H-benzotriazol-5-yl)-acetamide] |  |  | relatively effective | weak influence |  |
| Cc1ccc2c(C)nc(N/C(N)=N/C(=O)Cc3ccc(Cl)cc3)nc2c1 [Compound 8, N-[2-(4-Chloro-phenyl)-acetyl]-N′-(4,7-dimethyl-quinazolin-2-yl)-guanidine] |  |  | relatively effective | weak influence |  |
| COc1cc2cnc3c(c(Cc4ccccc4)nn3-c3ccccc3)c2cc1OC [Compound 9, 1-Benzyl-7,8-dimethoxy-3-phenyl-3H-pyrazolo[3,4-c]isoquinoline] |  |  | relatively effective | weak influence |  |
| Cc1ccc(OCC(=O)Nc2ccc(O)c(-c3nc4ccccc4o3)c2)cc1 [Compound 10, N-(3-Benzooxazol-2-yl-4-hydroxy-phenyl)-2-p-tolyloxy-acetamide] |  |  | relatively effective | weak influence |  |
| C=CCn1c2ccccc2n2cc(-c3ccccc3)nc12 [Compound 11, 8-Allyl-2-phenyl-8H-1,3a,8-triaza-cyclopenta[a]indene] |  |  | strong effect | two to four times less pronounced effect | protection of cells from cytotoxicity of DMBA (mouse ConA cells): strong protective effect |
| COc1ccccc1-c1nc(Cc2ccc(Cl)cc2)no1 [Compound 12, 3-(4-Chloro-benzyl)-5-(2-methoxy-phenyl)-[1,2,4]oxadiazole] |  |  |  |  | stimulation of P-gp-mediated efflux of daunorubicin relative to Rho123 (P-gp [3]; ConA cells (FIG. 8)): more effective |
| Nc1nc(SCCc2ccccc2)nc2sc3c(c12)CCCC3 [Compound 13, 2-Phenethylsulfanyl-5,6,7,8-tetrahydro-benzo[4,5]thieno[2,3-d]pyrimidin-4-ylamine] |  |  | strong effect | two to four times less pronounced effect | protection of cells from cytotoxicity of DMBA (mouse ConA cells): strong protective effect |
| CCOC(=O)Cn1c2ccccc2c2nc3cc4ccccc4cc3nc21 [Compound 14, (5,12,13-Triaza-indeno[1,2-b]anthracen-13-yl)-acetic acid ethyl ester] |  |  |  | no effect |  |
| Oc1ccccc1-c1nc(-c2ccccc2O)n(-c2ccccc2)n1 [Compound 15, 2,2′-(1-phenyl-1H-1,2,4-triazole-3,5-diyl)bis-phenol] |  |  | relatively effective | weak influence |  |
| Cc1ccc(-c2nnc(-c3ccccc3Cl)o2)s1 [Compound 16, 2-(2-Chloro-phenyl)-5-(5-methyl-thiophen-2-yl)-[1,3,4]oxadiazole] |  |  | relatively effective | weak influence | protection of cells from cytotoxicity of DMBA (mouse ConA cells): strong protective effect |
| COc1cccc2c1C(=O)c1c(O)c3c(c(O)c1C2=O)C[C@@](O)(C(C)=O)C[C@@H]3O[C@H]1C[C@H](N)[C@H](O)[C@H](C)O1 [Daunorubicin, daunorubicin] | less toxic | R |  |  | Change in sensitivity (x-fold) (ConA cells; ConA cells): 2.5 x-fold |
| COc1cc([C@@H]2c3cc4c(cc3[C@@H](O[C@@H]3O[C@@H]5CO[C@@H](C)O[C@H]5[C@H](O)[C@H]3O)[C@H]3COC(=O)[C@H]23)OCO4)cc(OC)c1O [Etoposide, etoposide] | less toxic | Minor R |  |  | Change in sensitivity (x-fold) (ConA cells; ConA cells): 1.5 x-fold |
| CCOc1ccc(-c2nc3ccc(-c4nc5ccc(N6CCN(C)CC6)cc5[nH]4)cc3[nH]2)cc1 [Hoechst 33342] |  | S? |  |  | cytotoxicity of the drug in the presence of Compound 102 (P-gp [1]; [4]): more potent |
| COc1ccc(C[C@H](N)C(=O)N[C@H]2[C@@H](O)[C@H](n3cnc4c(N(C)C)ncnc43)O[C@@H]2CO)cc1 [Puromycin, puromycin] | do not change their cytotoxicity |  |  |  | Change in sensitivity (x-fold) (ConA cells; ConA cells): 1 x-fold |
| CC(=O)O[C@H]1C(=O)[C@@]2(C)[C@H]([C@H](OC(=O)c3ccccc3)[C@]3(O)C[C@H](OC(=O)[C@H](O)[C@@H](NC(=O)c4ccccc4)c4ccccc4)C(C)=C1C3(C)C)[C@]1(OC(C)=O)CO[C@@H]1C[C@@H]2O [Taxol, taxol] | more potent | S |  |  | Change in sensitivity (x-fold) (ConA cells; ConA cells): 0.3 x-fold |
| CC[C@]1(O)C[C@@H]2CN(CCc3c([nH]c4ccccc34)[C@@](C(=O)OC)(c3cc4c(cc3OC)N(C)[C@H]3[C@@](O)(C(=O)OC)[C@H](OC(C)=O)[C@]5(CC)C=CCN6CC[C@]43[C@@H]65)C2)C1 [Vinblastine, vinblastine] | more potent | S |  |  | Change in sensitivity (x-fold) (ConA cells; ConA cells): 0.5 x-fold |
| CC[C@]1(O)C[C@H]2CN(CCc3c([nH]c4ccccc34)[C@@](C(=O)OC)(c3cc4c(cc3OC)N(C=O)[C@H]3[C@@](O)(C(=O)OC)[C@H](OC(C)=O)[C@]5(CC)C=CCN6CC[C@]43[C@@H]65)C2)C1 [Vincristine, vincristine] | more potent | S |  |  | Change in sensitivity (x-fold) (ConA cells; ConA cells): 0.5 x-fold |
| C=C1[C@@H](C)[C@H]2[C@H](Cc3ccccc3)NC(=O)[C@]23[C@H](OC(C)=O)/C=C/[C@@](C)(O)C(=O)[C@@H](C)C/C=C/[C@H]3[C@@H]1O [cytochalasin D] |  |  |  |  | cytotoxicity of the drug in the presence of Compound 102 (P-gp [1]; [4]): do not change their cytotoxicity |
| Rhodamine 123 | less toxic | R |  |  |  |
| gramicidin D [Gramicidine D] |  | S |  |  | cytotoxicity of the drug in the presence of Compound 102 (P-gp [1]; [4]): more potent |
